Results reported in patent publication US20190031613A1, “COMPOUNDS AND METHODS FOR THEIR USE IN THE TREATMENT OF MALARIA” (University of South Florida, priority 2016, published 2019).
Values after ≈ are worked out from the molar mass of the structure shown. Read-outs that look alike come from different tables or passages of the source.

Assays:
P. berghei-GFP parasites = experiment: in vivo efficacy, modified Thompson test; parameters: species or system mice
Experimental: Prodrug 6d was orally tested for in vivo efficacy at four doses (0.3 mg/kg, 1.0 mg/kg, 3.0 mg/kg, and 10 mg/kg) in 0.5% aqueous HEC solution.

[1] = in vivo pharmacokinetics in mice (plasma, LC/MS-MS)
Experimental: Plasma exposure of prodrug 6e and parent compound 1b was determined following a single oral administration at 10 mg/kg and 3 mg/kg doses in 0.5% aqueous HEC (FIG. 5b).
Compounds 1b and its prodrug 6e were administered as a single dose (10 mg/kg) in 0.5% HEC using freshly prepared solution. Parent compound 1d and its prodrugs 6c and 6d were administered as a single dose of 50 mg/kg using the same vehicle. The blood was collected in prepared 5 ml syringe containing heparin via cardiac puncture and put into 15 mL conical tube on ice. Five mice were used per one time point at 0.5 h, 1 h, 2 h, 4 h, 8 h and 24 h […] plus 2 mice as a control (not-treated). The blood was then centrifuged for 5 min at 4000 rpm and plasma supernatant collected while avoiding the whole blood pellet at the bottom of the tube. The plasma was stored at −80° C. until the day of LC/MS-MS analysis.
Compound concentrations were quantitated in plasma samples by LC/MS-MS using an Agilent triple quadrupole instrument. Chromatographic separation was conducted using an Agilent HPLC with Phenomenex Kinetex C18 column (2.6 μm particle size, 50-4.6 mm i.d.) equipped with a Phenomenex Security Guard column. The mobile phase (1.25 mL/min) consisted of 0.05% formic acid in water and 0.05% formic acid in acetonitrile mixed using a linear gradient over 7 minutes. […] Plasma samples and calibration standards were prepared by protein precipitation with acetonitrile (3 parts acetonitrile to 1 part plasma), followed by centrifugation and analysis of the supernatant. Sample concentrations were determined by comparison to calibration standards prepared in blank plasma and assayed using the same conditions. The analytical lower limit of quantitation in plasma was typically 0.75-1.00 nM and accuracy, precision and recovery were within acceptable limits.
The plasma was first warmed up on ice for about 1 hour. Then 50 μL of plasma sample was precipitated with 150 μL of cold acetonitrile with internal standard (133 nM) P4Q-95^20) following by centrifugation at 4,000 rpm for 5 min at 4° C. and transfer˜150 μL of the supernatant to LCMS vial. The samples were analyzed using Agilent triple quadruple instrument in triplicates (5 mice×3 injections for each time point). The chemical structure of P4Q-95^20 is shown below:
The calibration curve for 1d was linear in 1 to 500 nM range so samples were diluted if needed to fit this linearity and then concentration recalculated accordingly. Calibration curve was run each time following the actual PK measurements and used for that particular compound.

[2] = system: multidrug resistant malarial strain W2 (pyrimethamine and chloroquine resistant); experiment: in vitro antimalarial activity against strain W2; format: cell-based; conditions: strains W2 and TM90-C2B, strain not specified
Excerpt: FIG. 2a depicts the synthesis of 4(1H)-quinolones 1 via Conrad-Limpach reaction^24 and conversion to first set of prodrugs (2, 3 and 4) via O-acylation.
FIG. 4a depicts the synthesis of 4(1H)-quinolones 1 into amino AOCOM ether prodrugs 6 via O-alkylation and subsequent deprotection.

[3] = aqueous solubility at pH 7.4; conditions: aqueous medium at pH 7.4 (buffer not named), pH 7.4, aqueous buffer
P. berghei = conditions: cited from earlier work; for PO dose, single exposure radical cure: lowest single-cure dose as reported
[4] = single PO dose 0.01 mg/kg on day 3 PI
[5] = single PO dose 0.03 mg/kg on day 3 PI
[6] = single PO dose 0.1 mg/kg on day 3 PI
[7] = single PO dose 0.3 mg/kg on day 3 PI
[8] = single PO dose 3 mg/kg on day 3 PI
[9] = single PO dose 10 mg/kg on day 3 PI, 0.5% aqueous HEC
[10] = oral dose 3.0 mg/kg, 0.5% aqueous HEC
[11] = oral dose 100 mg/kg, 0.5% aqueous HEC
[12] = 50 mg/kg PO, three daily doses days 3-5 PI, 0.5% aqueous HEC

CNCCCOC(=O)OCOc1c(-c2ccc(Oc3ccc(OC(F)(F)F)cc3)cc2F)c(C)nc2cc(OC)c(Cl)cc12.Cl [6e, 6-Chloro-7-methoxy-2-methyl-3-(2-fluoro-4-(4-(trifluoromethoxy)phenoxy)phenyl)-4-(((3-(methylammonio)propyloxycarbonyl)oxy)methoxy)quinoline, chloride salt]
Day of death (avg) (P. berghei-GFP parasites; [4]): 13
Suppression [%] day 6 PI (P. berghei-GFP parasites; [4]): <1%
Day of death (avg) (P. berghei-GFP parasites; [5]): 13
Suppression [%] day 6 PI (P. berghei-GFP parasites; [5]): <1%
Day of death (avg) (P. berghei-GFP parasites; [6]): 13
Suppression [%] day 6 PI (P. berghei-GFP parasites; [6]): < 1%
Day of death (avg) (P. berghei-GFP parasites; [7]): 13
Suppression [%] day 6 PI (P. berghei-GFP parasites; [7]): 57%
average suppression of parasitemia on day 13 (P. berghei-GFP parasites; single PO dose 1 mg/kg): 90%
Suppression [%] day 6 PI (P. berghei-GFP parasites; single PO dose 1 mg/kg on day 3 PI): 97%
Day of death (avg) (P. berghei-GFP parasites; single PO dose 1 mg/kg on day 3 PI, 1 mg/kg): 21
Day of death (avg) (P. berghei-GFP parasites; [8]): curative
Suppression [%] day 6 PI (P. berghei-GFP parasites; [8]): > 99%
Day of death (avg) (P. berghei-GFP parasites; [9]): curative
Suppression [%] day 6 PI (P. berghei-GFP parasites; [9]): > 99%
oral dose producing single dose cures (P. berghei-GFP parasites; single oral dose, no advanced formulation): 3 mg/kg
clearance ([1]; mouse, in vivo, po): low clearance
half-life ([1]; mouse, in vivo, po): ≥ 10 h
improvement in AUC vs parent ([1]; mouse, in vivo, po): 21 fold
improvement of Cmax vs parent ([1]; mouse, in vivo, po): 18 fold
AUC0→24 ([1]; mouse, in vivo, po, 3 mg/kg): 4818 µmol·min/L
Vd ([1]; mouse, in vivo, po, 3 mg/kg): 0.8 L/kg
tmax ([1]; mouse, in vivo, po, 3 mg/kg): 120 min
AUC0→24 ([1]; mouse, in vivo, po, 10 mg/kg): 10269 µmol·min/L
CL ([1]; mouse, in vivo, po, 10 mg/kg): 1.4 mL·kg/min
Cmax ([1]; mouse, in vivo, po, 10 mg/kg): 9.1 µmol/L
Vd ([1]; mouse, in vivo, po, 10 mg/kg): 1.6 L/kg
t1/2 apparent ([1]; mouse, in vivo, po, 10 mg/kg): 13.1 h
tmax ([1]; mouse, in vivo, po, 10 mg/kg): 240 min

COc1cc2[nH]c(C)c(-c3ccc(Oc4ccc(OC(F)(F)F)cc4)cc3F)c(=O)c2cc1Cl [1b, 6-chloro-3-(2-fluoro-4-(4-(tfifluoromethoxy)phenoxy)phenyl)-7-methoxy-2-methyl-4(1H)-quinolone, reference compound]
Day of death (avg) (P. berghei-GFP parasites; [9]): 13
Suppression [%] day 6 PI (P. berghei-GFP parasites; [9]): <1%
in vivo activity (P. berghei-GFP parasites; single dose of 10 mg/kg PO, 0.5% aqueous HEC): completely inactive
AUC0→24 [1, 10]: 228 µmol·min/L
CL [1, 10]: 26.6 mL·kg/min
Vd [1, 10]: 19.6 L/kg
t1/2 apparent [1, 10]: 8.5 h
tmax [1, 10]: 240 min
AUC0→24 [1, 11]: 580 µmol·min/L
CL [1, 11]: 34.9 mL·kg/min
Vd [1, 11]: 44 L/kg
t1/2 apparent [1, 11]: 14.5 h
tmax [1, 11]: 480 min
Cmax ([1]; read-out: Cmax [μmol/L], oral dose 3.0 mg/kg, 0.5% aqueous HEC, parent in plasma): 0.31 µmol/L
Cmax ([1]; read-out: Cmax [μmol/L], oral dose 100 mg/kg, 0.5% aqueous HEC): 0.46 µmol/L
Cmax ([1]; single oral 3 mg/kg, 0.5% aqueous HEC): 0.31 µmol/L

COc1cc2nc(C)c(-c3ccccc3C)c(OC(=O)N3CCCC3)c2cc1Cl [2b, 6-Chloro-7-methoxy-2-methyl-3-(o-tolyl)-4-((pyrrolidine-1-carbonyl)oxy)quinoline]
EC50 values fold higher than reference 4(1H)-quinolone 1c [2]: 300 fold
in vitro antimalarial activity / EC50 values relative to 1c [2]: lacked in antimalarial activity
solubility [3]: 2.9 µM (≈ 1.19 µg/mL)

C[C@H]1Cc2c([nH]c3cc(Cl)c(F)cc23)[C@@]2(N1)C(=O)Nc1ccc(Cl)cc12 [KAE609]
PO dose, single exposure radical cure (P. berghei): 100 mg/kg

c1cc([C@H]2CC[C@]3(CC2)OO[C@]2(O3)C3CC4CC(C3)CC2C4)ccc1OCCN1CCOCC1 [OZ439]
single oral dose that cures P. berghei-infected mice (P. berghei; clinical candidate, given in combination with ferroquine in trials): 20 mg/kg
PO dose, single exposure radical cure (P. berghei): 20 mg/kg

COc1cc2[nH]c(C)c(-c3ccc(C(F)(F)F)cc3)c(=O)c2cc1Cl [1d, 6-chloro-7-methoxy-2-methyl-3-(4-(trifluoromethyl)phenyl)-4(1H)-quinolone, reference compound]
Suppression [%] day 6 PI (P. berghei-GFP parasites; 10 mg/kg PO, three daily doses days 3-5 PI, 0.5% aqueous HEC): 11%
Day of death (avg) (P. berghei-GFP parasites; 10 mg/kg PO, three daily doses days 3-5 PI, 0.5% aqueous HEC, untreated 13): 14
Day of death (avg) (P. berghei-GFP parasites; [12]): 13
Suppression [%] day 6 PI (P. berghei-GFP parasites; [12]): 10%
AUC0→24 ([1]; mouse, in vivo, po, 50 mg/kg): 222 µmol·min/L
CL ([1]; mouse, in vivo, po, 50 mg/kg): 609.7 mL·kg/min
Cmax ([1]; mouse, in vivo, po, 50 mg/kg): 0.36 µmol/L
Vd ([1]; mouse, in vivo, po, 50 mg/kg): 377.7 L/kg
maximum plasma concentration of 1d ([1]; mouse, in vivo, po, 50 mg/kg): 365 nM
t1/2 apparent ([1]; mouse, in vivo, po, 50 mg/kg): 7.15 h
time of maximum plasma concentration ([1]; mouse, in vivo, po, 50 mg/kg): 2 h
tmax ([1]; mouse, in vivo, po, 50 mg/kg): 120 min
